Measurements published in publication PMC8830069, “Metallo-β-Lactamase Inhibitor Phosphonamidate Monoesters” (ACS Omega, 2022).

What was measured:
NDM-1 [1] = target: T1, NDM-1 (Klebsiella pneumoniae, UniProt C7C422); test: MBL inhibition assay, purified NDM-1, imipenem hydrolysis at 300 nm; type: biochemical
Experimental: (§1) The inhibitory activities of 1a–h and 2 against the purified NDM-1, GIM-1, and VIM-2 enzymes were evaluated (IC50 data in Table 1). The inhibitory activity was measured by monitoring nitrocefin hydrolysis for VIM-2 and GIM-1 and that of imipenem for NDM-1[19] at λ 482 and 300 nm, respectively. […] This may indicate that unlike the sulfur of captopril, that of 1a and 2 might not coordinate the zinc ions in the active site. Alternatively, this may be a result of disulfide formation under the conditions of the enzyme assay. The hydrophobic 1f–h precipitated during the enzyme assay and their inhibitory activities could therefore not be reliably measured. This is not unusual as the binding cleft of MBL inhibitors is hydrophobic, and accordingly, their inhibitors typically have poor aqueous solubility.[20] The inhibitors may be solubilized by careful dilution of dimethylsulfoxide (DMSO) stock solutions; however, this was not successful for compounds 1f–h.
(§2) The inhibitory activity (IC50) of 1a–h was studied against the MBL enzymes NDM-1, GIM-1, and VIM-2. The buffer used for the studies contained 50 mM HEPES at pH 7.2, 10 μM ZnSO4, 2.5% DMSO, and 0.4 mg/mL bovine serum albumin, used as a prevention of protein unfolding and loss of activity. The enzyme concentration of NDM-1 was 10 nM, of GIM-1 1 nM, and of VIM-2 100 pM. The inhibitors were dissolved in 100% DMSO, and a twofold dilution series was made with a final 2.5% DMSO in the assay. The highest inhibitor concentration was 800 μM. The reporter substrate for VIM-2 and GIM-1 was nitrocefin, while for NDM-1 imipenem, and their absorbance (concentration) was followed at the wavelengths 482 and 300 nm, respectively. L-Captopril and EDTA-Na were used as positive and water and DMSO as negative controls. Measurements were read for 30 min at 298 K.

GIM-1 = GIM-1 (Pseudomonas aeruginosa, UniProt Q704V1); test: MBL inhibition assay, purified GIM-1, nitrocefin hydrolysis at 482 nm; type: biochemical; settings: nitrocefin reporter substrate, 1 nM enzyme, 2.5% DMSO, highest inhibitor concentration 800 μM; N.I. and P. not defined
Experimental: as §1, §2

VIM-2 = VIM-2 (Escherichia coli, UniProt Q5U7L7); test: MBL inhibition assay, purified VIM-2, nitrocefin hydrolysis at 482 nm; type: biochemical; settings: nitrocefin reporter substrate, 100 pM enzyme, 2.5% DMSO, highest inhibitor concentration 800 μM; N.I. and P. not defined
Experimental: as §1, §2

in vitro = type: cell-based; settings: human; cell viability after 24 hours incubation, at least two independent experiments; read-out: Cytotoxicity IC50 in HeLa cells
Experimental: The cytotoxicity of phosphonamidate monoesters was evaluated against HeLa cells (ATCC-CCL-2), which were maintained in Dulbecco’s modified Eagle medium (Thermo Fisher Scientific) supplemented with 10% (v/v) fetal bovine serum (Thermo Fisher Scientific), penicillin (100 units/mL), and streptomycin (100 μg/mL, both from Sigma) at 37 °C, 5% CO2. Cells were seeded in 96-well plates (Corning, Merck) at 20 × 10^3 cells/well and incubated for 24 h (37 °C, 5% CO2). Stock solutions of the compounds were prepared at 150 mM in DMSO (Sigma), and the cells were exposed to a serial dilution and incubated for 24 h. Subsequently, the cells were washed twice with culture medium, and the PrestoBlue reagent (Thermo Fischer Scientific) was directly added to the cells for cell viability determination (1:10 dilution in culture medium). Following recommended incubation times (manufacturer’s instructions), fluorescence was measured using a Spark plate reader (Tecan, Austria) at Ex/Em 560/590 nm and corrected for background fluorescence by including control wells containing only cell culture media (no cells). Data analysis was performed using GraphPad Prism 9.0.0 (GraphPad Software, USA). At least two independent experiments were performed.
Figure S1. Cytotoxicity dose-response curves of phosphonamidate monoesters as determined in HeLa cells. The cells were treated with the compounds at the indicated concentrations, and cell viability was measured after 24 hours incubation. The following IC50 values wer e determined to be (A) 69. 2 µM (SD = 1.0) for KAT -A-109-H2, (B) 201.4 µM (SD = 4.4) for KAT -A-102-H1 and (C) 90.7 µM (SD = 1.0) for KAT -A-118-H1. All remaining compounds (D - H) had IC50 values above 500 µM. Data is shown as mean ± SD of at least two independent experiments.
*A 1h, B 1e, C 1f, D 1a, E 1b, F 1d, G 1c. […]

[2] = Solubility / aggregation in NMR buffer; type: physicochemical; settings: 20 mM K3PO4 aqueous buffer solution at pH 7; aggregation was observed
Experimental: As binding-induced protein NMR chemical shift changes reveal the alteration of the local environment in the vicinity of the monitored nuclei, these are commonly acquired for identification of binding clefts. We monitored the weighted chemical shift changes, Δδ1H,15N, of uniformly ^15N-enriched backbone amide functionalities upon successive additions of the 0–2.370 mM ligand using ^1H,^15N HSQC experiments (Figure 5). Following literature examples,[31] chemical shift perturbations (CSPs) were considered to be significant (SSPs) in case the observed Δδ1H,15N was greater than the population mean plus the standard deviation (μ + 1σ). Such chemical shift changes may directly originate from the interaction or might be indirect and thus be the result of binding-induced conformational changes. Based on its activity against NDM-1 (Table 1) and solubility, 1d was selected for detailed analysis (Figure S2, Supporting Information). […] In order to exclude aggregation of 1d, we also performed additional ^1H,^15N HSQC titration experiments using 5% DMSO or 5% ethanol (EtOH). Some minor chemical shift variations were observed upon the addition of the co-solvents, as expected,[34] whereas neither protein precipitation nor alteration of the overall structure of NDM-1 was detected (Figures S3 and S4, Supporting Information). The chemical shift changes of 234 backbone amides were monitored. […]

NDM-1 [3] = target: T1, NDM-1; test: 1H,15N HSQC chemical shift titration and 15N-filtered HSQC-NOESY with 15N-labeled NDM-1; type: binding
Experimental: As binding-induced protein NMR chemical shift changes reveal the alteration of the local environment in the vicinity of the monitored nuclei, these are commonly acquired for identification of binding clefts. We monitored the weighted chemical shift changes, Δδ1H,15N, of uniformly ^15N-enriched backbone amide functionalities upon successive additions of the 0–2.370 mM ligand using ^1H,^15N HSQC experiments (Figure 5). Following literature examples,[31] chemical shift perturbations (CSPs) were considered to be significant (SSPs) in case the observed Δδ1H,15N was greater than the population mean plus the standard deviation (μ + 1σ). […] Some minor chemical shift variations were observed upon the addition of the co-solvents, as expected,[34] whereas neither protein precipitation nor alteration of the overall structure of NDM-1 was detected (Figures S3 and S4, Supporting Information). The chemical shift changes of 234 backbone amides were monitored. […]
Additional information about the binding event was obtained from 3D-^15N-filtered HSQC-NOESY (Figure S6, Supporting Information). […] Thus, in a filtered NOE experiment, only intermolecular cross-peaks are detected. […]
For the titrations, two ^15N-labeled NDM-1 (0.25 mM) batches were prepared. […] All experiments were recorded on a Bruker 600 MHz spectrometer at 310 K equipped with a 5 mm TCI cryogenic probe. […]

T1 sequence (C7C422 29-270 limits assumed): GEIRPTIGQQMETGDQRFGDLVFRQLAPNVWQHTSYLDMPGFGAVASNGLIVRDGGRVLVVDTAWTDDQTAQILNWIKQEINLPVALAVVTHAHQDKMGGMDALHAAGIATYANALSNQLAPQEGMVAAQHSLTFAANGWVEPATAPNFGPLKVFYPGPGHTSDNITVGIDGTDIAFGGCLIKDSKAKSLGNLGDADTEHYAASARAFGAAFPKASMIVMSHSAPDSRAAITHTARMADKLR
Sequence of GIM-1 (Q704V1 entry or part of it): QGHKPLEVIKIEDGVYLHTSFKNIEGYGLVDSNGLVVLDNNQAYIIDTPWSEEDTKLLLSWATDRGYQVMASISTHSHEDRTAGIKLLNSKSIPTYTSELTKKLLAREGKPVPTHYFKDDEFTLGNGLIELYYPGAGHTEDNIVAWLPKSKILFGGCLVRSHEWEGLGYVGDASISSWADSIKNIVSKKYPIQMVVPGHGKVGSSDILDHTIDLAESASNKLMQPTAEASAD

SMILES: COP(=O)(CCSC(C)=O)N(Cc1ccccn1)Cc1ccccn1 (racemic) [1d, (R/S)-(2-((Bis(pyridin-2-ylmethyl)amino) (methoxy)phosphoryl)ethyl) Ethanethioate]
- IC50 (NDM-1 [1]): 430 µM
- IC50 against purified GIM-1 (GIM-1): N.I.
- IC50 against purified VIM-2 (VIM-2): N.I.
- IC50 (in vitro): > 500 µM
- Solubility [2]: limited solubility
- Enzymatic modification of the structure by NDM-1 during the NMR studies (NDM-1 [3]): no sign for enzymatic modification
- Binding to NDM-1 by chemical shift perturbation (NDM-1 [3]; 0.25 mM 15N-labeled NDM-1, up to 1:10 protein/ligand, 310 K): specific binding
